Data taken from PMC10859787 (Clinical and Translational Science, 2024).

Tests used:
[1] = Population pharmacokinetic analysis of upadacitinib plasma concentrations; type: in vivo, human; conditions: for Cmax: C max; for Cmax / concentration at 24 h / C avg: model-estimated, 15 mg once daily, median (5th to 95th percentile); for concentration at 24 h: C trough
[2] = cited from earlier work
cytochrome P450 (CYP) 3A = conditions: cited from earlier work
CYP2D6 = conditions: cited from earlier work
[3] = human, plasma, oral, 15 mg, patients with RA in phase III trials (N = 1592)
[4] = human, plasma, oral, 15 mg, patients with nr-axSpA (N = 71)

CC[C@@H]1CN(C(=O)NCC(F)(F)F)C[C@@H]1c1cnc2cnc3[nH]ccc3n12 [upadacitinib]
Vd/F ([1]; human, plasma, oral, 15 mg): 171 L | Cmax [1, 3]: 41.1 ng/mL | Cmax [1, 4]: 37.3 ng/mL | concentration at 24 h ([1]; human, plasma, oral, 15 mg, patients with AS (N = 173)): 3.71 ng/mL | concentration at 24 h [1, 3]: 3.72 ng/mL | concentration at 24 h [1, 4]: 4.58 ng/mL | C avg ([1]; patients with AS (N = 173)): 14.5 (9.78, 25.9) ng/mL | C avg ([1]; patients with RA in phase III trials (N = 1592)): 14.9 (9.74, 29.2) ng/mL | C avg ([1]; patients with nr-axSpA (N = 71)): 14.8 (10.5, 25.5) ng/mL | dose linearity of pharmacokinetics ([2]; 7.5 to 45 mg q.d. dose range): linear pharmacokinetics | apparent volume of distribution of the central compartment (population estimate) ([2]; previously developed RA model): 156 L | substrate for cytochrome P450 (CYP) 3A (cytochrome P450 (CYP) 3A): substrate | substrate for CYP2D6 (CYP2D6): to a minor extent
